Measurements published in patent publication US20210300940A1 (Merck Patent GmbH, priority 2018, published 2021).
Where a name gives a salt, the structure may show the parent alone.

What was measured:
TLR7 = target: T1, TLR7 (Homo sapiens, UniProt Q9NYK1); test: HEK/293 TLR7 Cell Assay; format: cell-based; settings: TLR7/NFKb HEK cells, R848 agonist 10 uM final concentration, Steady-Glo readout; read-out: TLR7 potency
T1 construct: expressed in transfected cells; host or cells: HEK/293 cells carrying TLR7 and an NF-kB luciferase reporter
T1 sequence (Q9NYK1 27-1049): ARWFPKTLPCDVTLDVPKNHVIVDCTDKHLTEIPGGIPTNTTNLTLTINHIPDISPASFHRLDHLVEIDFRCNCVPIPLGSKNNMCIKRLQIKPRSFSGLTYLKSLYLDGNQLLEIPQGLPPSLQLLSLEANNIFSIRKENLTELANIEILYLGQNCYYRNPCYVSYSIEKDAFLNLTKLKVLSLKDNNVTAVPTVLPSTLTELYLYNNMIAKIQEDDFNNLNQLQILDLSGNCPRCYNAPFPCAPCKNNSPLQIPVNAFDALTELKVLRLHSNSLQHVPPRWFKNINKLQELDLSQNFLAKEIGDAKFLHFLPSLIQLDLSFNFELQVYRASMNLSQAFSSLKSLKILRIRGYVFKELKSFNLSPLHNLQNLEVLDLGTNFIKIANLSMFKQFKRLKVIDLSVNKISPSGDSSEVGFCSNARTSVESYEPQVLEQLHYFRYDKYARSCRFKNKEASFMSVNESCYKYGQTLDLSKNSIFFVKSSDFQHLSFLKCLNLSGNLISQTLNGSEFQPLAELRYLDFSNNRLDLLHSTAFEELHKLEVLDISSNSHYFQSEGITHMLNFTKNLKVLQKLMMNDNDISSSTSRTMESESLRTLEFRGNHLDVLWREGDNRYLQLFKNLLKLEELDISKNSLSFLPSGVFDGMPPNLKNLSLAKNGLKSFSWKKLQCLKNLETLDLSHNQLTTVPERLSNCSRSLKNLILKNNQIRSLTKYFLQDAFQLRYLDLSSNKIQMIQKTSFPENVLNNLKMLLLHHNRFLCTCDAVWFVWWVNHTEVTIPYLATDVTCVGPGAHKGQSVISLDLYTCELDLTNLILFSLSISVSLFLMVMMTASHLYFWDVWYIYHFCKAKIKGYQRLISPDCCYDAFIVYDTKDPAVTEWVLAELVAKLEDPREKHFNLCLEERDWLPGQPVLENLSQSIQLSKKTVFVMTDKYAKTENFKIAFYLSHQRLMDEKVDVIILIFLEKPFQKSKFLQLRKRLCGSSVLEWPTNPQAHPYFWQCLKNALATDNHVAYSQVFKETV
Procedure, shortened: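 TLR7/NF-κB reporter HEK293 cells, 5000/well, cultured 24 h, then preincubated 30 min with compound before R848 agonist (10 uM final). After 5 h stimulation, Steady-Glo luciferase luminescence read.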

TLR8 = target: T2, TLR8 (Homo sapiens, UniProt Q9NR97); test: HEK/293 TLR8 Cell Assay; format: cell-based; settings: HEK cells, R848 agonist 30 uM final concentration, Steady-Glo readout; read-out: TLR8 potency
T2 construct: expressed in transfected cells; host or cells: HEK/293 reporter cells (NF-kB luciferase)
T2 sequence (Q9NR97 27-1041): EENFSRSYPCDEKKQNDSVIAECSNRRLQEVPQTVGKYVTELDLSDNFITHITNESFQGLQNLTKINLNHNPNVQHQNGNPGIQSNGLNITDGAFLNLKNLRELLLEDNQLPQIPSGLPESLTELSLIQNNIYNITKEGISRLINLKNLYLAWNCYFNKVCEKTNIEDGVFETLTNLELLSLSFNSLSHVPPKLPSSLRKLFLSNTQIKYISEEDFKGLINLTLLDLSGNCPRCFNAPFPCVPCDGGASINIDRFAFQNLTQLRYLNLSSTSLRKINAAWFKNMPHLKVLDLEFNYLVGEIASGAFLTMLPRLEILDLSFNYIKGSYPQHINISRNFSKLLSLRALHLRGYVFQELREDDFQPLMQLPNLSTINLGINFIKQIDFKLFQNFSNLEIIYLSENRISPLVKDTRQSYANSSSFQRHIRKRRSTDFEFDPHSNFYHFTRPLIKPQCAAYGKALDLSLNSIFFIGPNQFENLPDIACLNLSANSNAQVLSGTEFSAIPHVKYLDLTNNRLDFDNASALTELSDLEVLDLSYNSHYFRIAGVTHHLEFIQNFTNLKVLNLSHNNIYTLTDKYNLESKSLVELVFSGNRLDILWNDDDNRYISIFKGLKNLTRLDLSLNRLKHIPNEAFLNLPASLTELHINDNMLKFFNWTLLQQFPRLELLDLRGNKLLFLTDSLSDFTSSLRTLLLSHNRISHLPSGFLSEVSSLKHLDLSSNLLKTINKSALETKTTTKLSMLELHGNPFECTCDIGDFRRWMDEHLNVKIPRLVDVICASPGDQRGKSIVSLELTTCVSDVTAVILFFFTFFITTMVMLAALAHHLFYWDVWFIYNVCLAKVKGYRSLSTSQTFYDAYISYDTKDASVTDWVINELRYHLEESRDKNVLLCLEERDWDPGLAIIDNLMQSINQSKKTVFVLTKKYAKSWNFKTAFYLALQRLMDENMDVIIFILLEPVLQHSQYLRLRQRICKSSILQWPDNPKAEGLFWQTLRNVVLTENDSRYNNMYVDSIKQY

Compound	IC50 (TLR7)	IC50 (TLR8)
C[C@H]1C[C@@H](NC(=O)CC2(F)CCNCC2)CN(c2ccc(C#N)c3nccnc23)C1 [Example 114, N-[(3R,5S)-1-(8-cyanoquinoxalin-5-yl)-5-methylpiperidin-3-yl]-2-(4-fluoropiperidin-4-yl)acetamide]	< 0.075 µM	< 0.075 µM
C[C@H]1C[C@@H](NCCC2CCNC2=O)CN(c2ccc(C(F)(F)F)c3ncccc23)C1 (stereo partly drawn) [Example 30, 3-{2-[(3R,5S)-5-Methyl-1-(8-trifluoromethyl-quinolin-5-yl)-piperidin-3-ylamino]-ethyl}-pyrrolidin-2-one]	< 0.075 µM	< 0.075 µM
CC(=O)NCCN[C@@H]1C[C@H](C(F)(F)F)CN(c2ccc(C#N)c3ncccc23)C1 [Example 44, N-{2-[(3R,5S)-1-(8-Cyano-quinolin-5-yl)-5-trifluoromethyl-piperidin-3-ylamino]-ethyl}-acetamide]	< 0.075 µM	0.075 to 0.15 µM
C[C@@H]1CN(c2ccc(C#N)c3nccnc23)C[C@H](CN2CC(O)C2)O1 [Example 216, 8-[(2S,6R)-2-(3-Hydroxy-azetidin-1-ylmethyl)-6-methyl-morpholin-4-yl]-quinoxaline-5-carbonitrile]	< 0.075 µM	> 0.15 µM
COc1ncc(N2C[C@@H](C)C[C@@H](N)C2)c2cccnc12 [Example 151, (3R,5S)-1-(8-Methoxy-[1,7]naphthyridin-5-yl)-5-methyl-piperidin-3-ylamine]	< 0.075 µM	< 0.075 µM
C[C@H]1C[C@@H](NC(=O)C[C@@H](O)CN(C)C)CN(c2ccc(C#N)c3nccnc23)C1 [Example 211, (3R)—N-[(3R,5S)-1-(8-cyanoquinoxalin-5-yl)-5-methylpiperidin-3-yl]-4-(dimethylamino)-3-hydroxybutanamide]	< 0.075 µM	< 0.075 µM
C[C@H]1C[C@@H](NC(=O)CCC2CCN(C)CC2)CN(c2ccc(C#N)c3ncncc23)C1 [Example 191, N-[(3R,5S)-1-(8-Cyano-quinazolin-5-yl)-5-methyl-piperidin-3-yl]-3-(1-methyl-piperidin-4-yl)-propionamide]	0.075 to 0.15 µM	0.075 to 0.15 µM
C[C@@H]1CN(c2cnc(C#N)c3ncccc23)C[C@H](CNC(=O)[C@@]2(F)CCN(C)C2)O1 (single isomer, unassigned) [Example 334]	> 0.15 µM	< 0.075 µM
Cc1c(F)cc(N2C[C@@H](C)C[C@@H](NC(=O)[C@@H](N)CC(N)=O)C2)c2cccnc12 [Example 129, (2S)-2-amino-N-[(3R,5S)-1-(7-fluoro-8-methylquinolin-5-yl)-5-methylpiperidin-3-yl]butanediamide]	0.075 to 0.15 µM	< 0.075 µM
C[C@H]1C[C@@H](OCCN2CCCCC2)CN(c2ccc(C#N)c3nccnc23)C1 [Example 5, 8-[(3S,5R)-3-methyl-5-[2-(piperidin-1-yl)ethoxy]piperidin-1-yl]quinoxaline-5-carbonitrile]	< 0.075 µM	< 0.075 µM
C[C@@H]1CN(c2cnc(C#N)c3ncccc23)C[C@H](C(=O)NCC2CCCN2C)O1 (stereo partly drawn) [Example 273, (2R,6R)-4-(8-Cyano-[1,7]naphthyridin-5-yl)-6-methyl-morpholine-2-carboxylic acid (1-methyl-pyrrolidin-2-ylmethyl)-amide]	< 0.075 µM	< 0.075 µM
Cc1c(F)cc(N2C[C@@H](C)C[C@@H](NC(=O)NCCN(C)C)C2)c2cccnc12 [Example 145, 3-[2-(dimethylamino)ethyl]-1-[(3R,5S)-1-(7-fluoro-8-methylquinolin-5-yl)-5-methylpiperidin-3-yl]urea]	< 0.075 µM	< 0.075 µM
C[C@H]1C[C@@H](NC(=O)[C@@H]2CCCN2)CN(c2ccc(C(F)(F)F)c3ncccc23)C1 [Example 176, (S)-Pyrrolidine-2-carboxylic acid [(3R,5S)-5-methyl-1-(8-trifluoromethyl-quinolin-5-yl)-piperidin-3-yl]-amide]	0.075 to 0.15 µM	< 0.075 µM
C[C@H]1C[C@@H](NCCNC(N)=O)CN(c2ccc(C(F)(F)F)c3ncccc23)C1 [Example 45, {2-[(3R,5S)-5-Methyl-1-(8-trifluoromethyl-quinolin-5-yl)-piperidin-3-ylamino]-ethyl}-urea]	< 0.075 µM	< 0.075 µM
C[C@@H]1CN(c2ccc(C(F)(F)F)c3ncccc23)C[C@H](CN2CCC(N3CCOCC3)CC2)O1 [Example 329, 5-[(2R,6S)-2-Methyl-6-(4-morpholin-4-yl-piperidin-1-ylmethyl)-morpholin-4-yl]-8-trifluoromethyl-quinoline]	0.075 to 0.15 µM	< 0.075 µM
C[C@H]1C[C@@H](NC(=O)CC2(O)CCN(C)CC2)CN(c2ccc(C#N)c3nccnc23)C1 [Example 72, N-[(3R,5S)-1-(8-cyanoquinoxalin-5-yl)-5-methylpiperidin-3-yl]-2-(4-hydroxy-1-methylpiperidin-4-yl)acetamide hydrochloride]	< 0.075 µM	< 0.075 µM
C[C@@H]1CN(c2cnc(C#N)c3ncccc23)C[C@H](CNC(=O)[C@]2(F)CCN(C)C2)O1 (single isomer, unassigned) [Example 335]	0.075 to 0.15 µM	< 0.075 µM
C[C@@H]1CN(c2cnc(C#N)c3ncccc23)C[C@H](CN2CCNC(=O)C2)O1 [Example 379, 5-[(2R,6S)-2-Methyl-6-(3-oxo-piperazin-1-ylmethyl)-morpholin-4-yl]-naphthyridine-8-carbonitrile]	> 0.15 µM	> 0.15 µM
C[C@H]1C[C@@H](NC(=O)CC2CS(=O)(=O)C2)CN(c2ccc(C#N)c3nccnc23)C1 [Example 207, N-[(3R,5S)-1-(8-cyanoquinoxalin-5-yl)-5-methylpiperidin-3-yl]-2-(1,1-dioxo-1λ^6-thietan-3-yl)acetamide]	> 0.15 µM	0.075 to 0.15 µM
C[C@H]1C[C@@H](NCCC(=O)NO)CN(c2ccc(C(F)(F)F)c3ncccc23)C1 [Example 36, N-Hydroxy-3-[(3R,5S)-5-methyl-1-(8-trifluoromethyl-quinolin-5-yl)-piperidin-3-ylamino]-propionamide]	< 0.075 µM	< 0.075 µM
C[C@@H]1CN(c2ccc(C#N)c3nccnc23)C[C@H](CSC2CN(CC(C)(C)O)C2)O1 [Example 226, 8-{(2R,6R)-2-[1-(2-Hydroxy-2-methyl-propyl)-azetidin-3-ylsulfanylmethyl]-6-methyl-morpholin-4-yl}-quinoxaline-5-carbonitrile]	< 0.075 µM	< 0.075 µM
N#Cc1ccc(N2C[C@H](NC(=O)C3CCCCN3)C[C@H](C(F)(F)F)C2)c2cccnc12 (stereo partly drawn) [Example 183, Piperidine-2-carboxylic acid [(3R,5S)-1-(8-cyano-quinolin-5-yl)-5-trifluoromethyl-piperidin-3-yl]-amide]	0.075 to 0.15 µM	0.075 to 0.15 µM
